# Measured values from paper PMC9673804, “Design, synthesis and antitumor evaluation of novel pyrazolo[3,4-d]pyrimidines incorporating different amino acid conjugates as potential DHFR inhibitors” (Journal of Enzyme Inhibition and Medicinal Chemistry, 2022).
# “And” between values parts separate entries of the source, which are not always exact repeats. Identical values can stand only once.
# Key:
# [1] = system: pancreatic human cancer cell lines (BxPC-3); assay: SRB cytotoxicity assay, BxPC-3; type: cell-based; conditions: BxPC-3 cells
# Method: (§1) The SRB colorimetric assay was employed to assess the synthesized compounds’ cytotoxic effects on several cancer cell lines (Table 1)[11–14]. […] Furthermore, the effect of tested compounds was evaluated on the normal immortalized HPDE cell line.
# (§2) Sulforhodamine B (SRB) assay was employed to assay in-vitro antitumor activities of all the synthesised compounds as describer previously. […] The cell lines were obtained from the American Type Culture Collection (Rockville, USA).
# [2] = system: colorectal carcinoma (HCT-116); assay: SRB cytotoxicity assay, HCT-116; type: cell-based; conditions: Homo sapiens, HCT-116 cells
# Method: as §1, §2
# [3] = system: mammary gland breast cancer (MCF-7); assay: SRB cytotoxicity assay, MCF-7; type: cell-based; conditions: Homo sapiens, MCF7, MCF-7 cells
# Method: as §1, §2
# [4] = system: human hepatocellular carcinoma (HepG-2); assay: SRB cytotoxicity assay, HepG-2; type: cell-based; conditions: HepG2, HepG-2 cells
# Method: as §1, §2
# [5] = system: human prostate cancer (PC-3); assay: SRB cytotoxicity assay, PC-3; type: cell-based; conditions: PC-3 cells
# Method: as §1, §2
# [6] = system: cervical carcinoma (HeLa); assay: SRB cytotoxicity assay, HeLa; type: cell-based; conditions: Homo sapiens, HeLa cells
# [7] = system: normal immortalised pancreatic cell line (HPDE); assay: SRB cytotoxicity assay, normal HPDE cells; type: cell-based; conditions: normal immortalized HPDE cell line
# Method: as §1, §2
# human DHFR enzyme = biological target: T1, human DHFR enzyme (Homo sapiens, UniProt P00374); assay: Elisa assay of human DHFR enzyme; type: biochemical; conditions: for IC50: DHFR ELISA kit, triplicate; for inhibition at 0.1 µM: conc 0.1 uM; for inhibition at 1 µM: conc 1 uM; for inhibition at 10 µM: conc 10 uM; for inhibition at 100 µM: conc 100 uM
# T1 construct: purchased MyBioSource MBS9312476
# T1 sequence (P00374 1-187): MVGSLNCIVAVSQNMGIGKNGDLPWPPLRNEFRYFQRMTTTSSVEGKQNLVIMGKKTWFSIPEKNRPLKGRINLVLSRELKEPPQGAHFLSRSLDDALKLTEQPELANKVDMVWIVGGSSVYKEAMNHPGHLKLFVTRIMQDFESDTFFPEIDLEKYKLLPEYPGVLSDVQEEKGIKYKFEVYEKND
# Method: Enzyme-linked immunosorbent assay (ELISA) assay technique was used to evaluate the anti-DHFR effects of all the synthesised compounds on as described previously. The DHFR ELISA kit (MyBioSource, MBS9312476 San Diego, CA, USA) was used according to the manufacturer instructions. […] The test was repeated in triplicate, and the significance was assessed by one-way ANOVA test followed by Tukey’s posttest, where p < 0.05 was considered significance.
SMILES,IC50 [1],IC50 [2],IC50 [3],IC50 [4],IC50 [5],IC50 [6],IC50 [7],IC50 (human DHFR enzyme),inhibition at 0.1 µM (human DHFR enzyme),inhibition at 1 µM (human DHFR enzyme),inhibition at 10 µM (human DHFR enzyme),inhibition at 100 µM (human DHFR enzyme)
"O=C(O)CNC(=O)c1ccc(Nc2ncnc3c2cnn3-c2ccccc2)cc1 [Compound 7a, 2-{4-[(1-Phenyl-1H-pyrazolo[3,4-d]pyrimidin-4-yl)amino]benzamido}acetic acid]",19.4 ± 1.56 µM,28.2 ± 1.93 µM,15.3 ± 1.29 µM,15.5 ± 0.96 µM,23 ± 1.03 µM,19.4 ± 1.21 µM,> 50 µM,13.3 ± 0.24 µM,12%,30%,57%,81%
"O=C(NC(Cc1ccc(O)cc1)C(=O)O)c1ccc(Nc2ncnc3c2cnn3-c2ccccc2)cc1 (stereo not drawn) [Compound 7m, 3-(4-Hydroxyphenyl)-2-{4-[(1-phenyl-1H-pyrazolo[3,4-d]pyrimidin-4-yl)amino]benzamido}-propanoic acid]",12 ± 1.14 µM,13.3 ± 2.21 µM,11.3 ± 1.28 µM,14.2 ± 0.98 µM,12.7 ± 1.87 µM,11.8 ± 1.13 µM,> 50 µM,1.34 ± 0.03 µM,36%,52%,73%,86%
"CN(Cc1cnc2nc(N)nc(N)c2n1)c1ccc(C(=O)N[C@@H](CCC(=O)O)C(=O)O)cc1 [Methotrexate, methotrexate, reference compound]",29.1 ± 0.31 µM,99.98 ± 0.22 µM,66.11 ± 0.15 µM,800.24 ± 0.16 µM,42.3 ± 7.25 µM,294.8 ± 0.51 µM,> 50 µM,,,,,
"O=C(c1ccc(Nc2ncnc3c2cnn3-c2ccccc2)cc1)n1nnc2ccccc21 [Compound 6, {1H-benzo[d][1,2,3]triazol-1-yl}{4-[(1-phenyl-1H-pyrazolo-[3,4-d]pyrimidin-4-yl)-amino]phenyl}-methanone]",14.2 ± 1.36 µM,17.3 ± 2.18 µM,11.9 ± 1.1 µM,13 ± 1.86 µM,14.9 ± 1.24 µM,15.1 ± 1.21 µM,> 50 µM,7.99 ± 0.16 µM,17%,29%,61%,89%
"O=C(NC(Cc1c[nH]c2ccccc12)C(=O)O)c1ccc(Nc2ncnc3c2cnn3-c2ccccc2)cc1 (stereo not drawn) [Compound 7k, 3-(1h-Indol-3-yl)-2-{4-[(1-phenyl-1H-pyrazolo[3,4-d]pyrimidin-4-yl)amino]benzamido}propanoic acid]",19.1 ± 1.23 µM,18 ± 1.23 µM,28.9 ± 1.91 µM,25.54 ± 0.14 µM,19.9 ± 1.35 µM,19.5 ± 1.1 µM,> 50 µM,7 ± 0.17 µM,21%,37%,60%,77%
"CC(NC(=O)c1ccc(Nc2ncnc3c2cnn3-c2ccccc2)cc1)C(=O)O (stereo not drawn) [Compound 7b, 2-{4-[(1-Phenyl-1H-pyrazolo[3,4-d]pyrimidin-4-yl)amino]benzamido}propanoic acid]",31.2 ± 2.8 µM,29.6 ± 1.91 µM,35.7 ± 2.09 µM,19.2 ± 1.87 µM,34.2 ± 2.61 µM,29.2 ± 1.9 µM,> 50 µM,42.5 ± 0.78 µM,6.4%,20%,38%,72%
"O=C(NC(Cc1c[nH]cn1)C(=O)O)c1ccc(Nc2ncnc3c2cnn3-c2ccccc2)cc1 (stereo not drawn) [Compound 7i, 3-(1h-Imidazol-4-yl)-2-{4-[(1-phenyl-1H-pyrazolo[3,4-d]pyrimidin-4-yl)amino]benzamido}-propanoic acid]",10.5 ± 3.01 µM,13 ± 1.01 µM,13.2 ± 1.21 µM,9.26 ± 1.56 µM,12.8 ± 2.01 µM,10.9 ± 1.99 µM,> 50 µM,< 1 µM and 0.82 µM,35%,63%,80%,94%
"CCC(C)C(NC(=O)c1ccc(Nc2ncnc3c2cnn3-c2ccccc2)cc1)C(=O)O (stereo not drawn) [Compound 7d, 3-Methyl-2-{4-[(1-phenyl-1H-pyrazolo[3,4-d]pyrimidin-4-yl)amino]benzamido}pentanoic acid]",11.2 ± 0.41 µM,10.1 ± 1.01 µM,5.51 ± 0.28 µM,9.09 ± 0.71 µM,9.99 ± 0.81 µM,8.09 ± 0.51 µM,> 50 µM,< 1 µM and 0.43 µM,42%,66%,85%,95%
"COc1cccc2c1C(=O)c1c(O)c3c(c(O)c1C2=O)C[C@@](O)(C(=O)CO)C[C@@H]3O[C@H]1C[C@H](N)[C@H](O)[C@H](C)O1 [Doxorubicin, reference compound]",7.23 ± 0.1 µM,,4.25 ± 0.15 µM,4.6 ± 0.44 µM,9.01 ± 0.09 µM,,> 50 µM,,,,,
"O=C(O)CCC(NC(=O)c1ccc(Nc2ncnc3c2cnn3-c2ccccc2)cc1)C(=O)O (stereo not drawn) [Compound 7e, 2-{4-[(1-Phenyl-1H-pyrazolo[3,4-d]pyrimidin-4-yl)amino]benzamido}pentanedioic acid]",15.2 ± 1.15 µM,15.3 ± 1.18 µM,11.9 ± 1.1 µM,16 ± 0.8 µM,13.8 ± 1.14 µM,13.1 ± 1.01 µM,> 50 µM,1.83 ± 0.04 µM,28%,57%,72%,89%
"O=C(O)C1CCCN1C(=O)c1ccc(Nc2ncnc3c2cnn3-c2ccccc2)cc1 (stereo not drawn) [Compound 7j, 1-{4-[(1-Phenyl-1H-pyrazolo[3,4-d]pyrimidin-4-yl)amino]benzoyl}pyrrolidine-2-carboxylic acid]",6.19 ± 0.43 µM,8.1 ± 0.2 µM,8.19 ± 1.2 µM,10.3 ± 1.2 µM,11.2 ± 0.7 µM,9.29 ± 0.2 µM,> 50 µM,< 1 µM and 0.54 µM,41%,64%,80%,93%
"O=C(NC(Cc1ccccc1)C(=O)O)c1ccc(Nc2ncnc3c2cnn3-c2ccccc2)cc1 (stereo not drawn) [Compound 7l, 3-Phenyl-2-{4-[(1-phenyl-1H-pyrazolo[3,4-d]pyrimidin-4-yl)amino]benzamido}propanoic acid]",11.5 ± 0.76 µM,13 ± 0.89 µM,10.7 ± 1.09 µM,13.2 ± 1.29 µM,10.1 ± 0.9 µM,9.05 ± 1.2 µM,> 50 µM,< 1 µM and ~0.66 µM and 0.66 µM,34%,68%,81%,92%
